Data on 36 molecules can be found in US9884832B2 (priority 2011, dated 2018).

AM2 S31 (wild-type serine at position 31 in the M2 protein), influenza virus A/Udorn/72, sequence (P0DOF5 whole entry, looked up): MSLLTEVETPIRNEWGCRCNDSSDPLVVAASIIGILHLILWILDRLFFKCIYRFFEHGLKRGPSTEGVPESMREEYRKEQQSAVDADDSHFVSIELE

The first test concerns the target AM2 S31 (wild-type serine at position 31 in the M2 protein), influenza virus A/Udorn/72 (Influenza A virus, UniProt P0DOF5). Nature of the test: cell-based. As to conditions: 100 uM; Xenopus oocytes; activity range class; read-out: S31 OOcyte Inhibition at 100 uM (%).
As a reminder, the inhibition is the drop in the measured response relative to a control, in per cent. As to `c1cc(-c2csc(CNC34CC5CC(CC(C5)C3)C4)c2)cs1` [Example 152a, N-([3,3′-bithiophen]-5-ylmethyl)adamantan-1-amine], the inhibition at 100 µM was 0 to 30%.

Turning to `Fc1ccc(-c2nc(CNC34CC5CC(CC(C5)C3)C4)no2)cc1` [Example 163a], the inhibition at 100 µM lay within 0 to 30%.

For `Oc1cc(-c2ccoc2)ccc1CNC12CC3CC(CC(C3)C1)C2` [Example 46a], the inhibition at 100 µM fell in the range of 0 to 30%.

As to `FC(F)(F)c1ccc(CNC23CC4CC(CC(C4)C2)C3)cc1` [Example 5a, Adamantan-1-yl-(4-trifluoromethyl-benzyl)-amine], the inhibition at 100 µM fell in the range of 0 to 30%.

Regarding `c1nc(CNC23CC4CC(CC(C4)C2)C3)no1` [Example 73a, Adamantan-1-yl-[1,2,4]oxadiazol-3-ylmethyl-amine], the inhibition at 100 µM fell in the range of 31 to 95%.

Take `c1cc2cn[nH]c2cc1CNC12CC3CC(CC(C3)C1)C2` [Example 43a, N-((1H-indazol-6-yl)methyl)adamantan-1-amine]: the inhibition at 100 µM lay within 31 to 95%.

On to `c1cc(C2CC2)sc1CNC12CC3CC(CC(C3)C1)C2` [Example 108a, N-((5-cyclopropylthiophen-2-yl)methyl)adamantan-1-amine], for which the inhibition at 100 µM lay in the range of 0 to 30%.

Turning to `Cc1nc(-c2ccc(CNC34CC5CC(CC(C5)C3)C4)s2)cs1` [Example 156a, N-((5-(2-methylthiazol-4-yl)thiophen-2-yl)methyl)adamantan-1-amine], the inhibition at 100 µM was in the range of 0 to 30%.

Turning to `Clc1cccc2cc(CNC34CC5CC(CC(C5)C3)C4)sc12` [Example 183a, Adamantan-1-yl-(7-chloro-benzo[b]thiophen-2-ylmethyl)-amine], the inhibition at 100 µM is 31 to 95%.

As to `Oc1cc(-c2cc3ccccc3o2)ccc1CNC12CC3CC(CC(C3)C1)C2` [Example 48a], the inhibition at 100 µM is 0 to 30%.

On to `CCSc1ccc(CNC23CC4CC(CC(C4)C2)C3)cc1` [Example 12a, N-(4-(ethylthio)benzyl)adamantan-1-amine], for which the inhibition at 100 µM lay within 0 to 30%.

In the case of `c1ccc(-c2noc(CNC34CC5CC(CC(C5)C3)C4)n2)cc1` [Example 123a, N-((3-phenyl-1,2,4-oxadiazol-5-yl)methyl)adamantan-1-amine], the inhibition at 100 µM was in the range of 0 to 30%.

Consider `Cc1ncc(CN(Cc2cnc(C)s2)C23CC4CC(CC(C4)C2)C3)s1` [Example 202a, N,N-bis((2-methylthiazol-5-yl)methyl)adamantan-1-amine], for which the inhibition at 100 µM was 0 to 30%.

Regarding `O=c1[nH]cc(CNC23CC4CC(CC(C4)C2)C3)c(=O)[nH]1` [Example 169a, 5-((adamantan-1-ylamino)methyl)pyrimidine-2,4(1H,3H)-dione], the inhibition at 100 µM lay in the range of 0 to 30%.

Turning to `Cc1oc(-c2cccs2)nc1CNC12CC3CC(CC(C3)C1)C2` [Example 145a, N-((5-methyl-2-(thiophen-2-yl)oxazol-4-yl)methyl)adamantan-1-amine], the inhibition at 100 µM lay in the range of 0 to 30%.

The test is the same for the next values; noted with them: Table 1; 100 uM; Xenopus oocytes, pH 5.5, -20 mV; read-out: S31 OOcyte Inhibition at 100 uM (%).
On to `C[Si](C)(C)CCCNCc1ccc(O)cc1O` [Example 113, 4-[(3-Trimethylsilanyl-propylamino)-methyl]-benzene-1,3-diol], for which the inhibition at 100 µM is 31 to 95%.

`FC(F)(F)Sc1ccc(CNC23CC4CC(CC(C4)C2)C3)cc1` [Example 26, Adamantan-1-yl-(4-trifluoromethylsulfanyl-benzyl)-amine]: the inhibition at 100 µM is 0 to 30%.

For the molecule `c1ccc2nc(CNC34CC5CC(CC(C5)C3)C4)ccc2c1` [Example 98, Adamantan-1-yl-quinolin-2-ylmethyl-amine], the inhibition at 100 µM fell in the range of 31 to 95%.

For `O=C(Oc1ccc(CNC23CC4CC(CC(C4)C2)C3)cc1)C1CC1` [Example 34, Cyclopropanecarboxylic acid 4-(adamantan-1-ylaminomethyl)-phenyl ester], the inhibition at 100 µM fell in the range of 0 to 30%.

In the case of `COc1ccc(CNC23CC4CC(CC(C4)C2)C3)c(OC)c1` [Example 59, Adamantan-1-yl-(2,4-dimethoxy-benzyl)-amine], the inhibition at 100 µM fell in the range of 0 to 30%.

For `Oc1cc(OCc2ccccc2)ccc1CNC12CC3CC(CC(C3)C1)C2` [Example 57, 2-(Adamantan-1-ylaminomethyl)-5-benzyloxy-phenol], the inhibition at 100 µM is 31 to 95%.

For `c1ccc2sc(CNC34CC5CC(CC(C5)C3)C4)cc2c1` [Example 88, Adamantan-1-yl-benzo[b]thiophen-2-ylmethyl-amine], the inhibition at 100 µM lay within 0 to 30%.

As to `COc1ccc(F)c(CNC23CC4CC(CC(C4)C2)C3)c1` [Example 63, Adamantan-1-yl-(2-fluoro-5-methoxy-benzyl)-amine], the inhibition at 100 µM fell in the range of 31 to 95%.

Consider `CC(=O)Nc1ccc(CNC23CC4CC(CC(C4)C2)C3)cc1` [Example 17, N-[4-(Adamantan-1-ylaminomethyl)-phenyl]-acetamide], for which the inhibition at 100 µM was 0 to 30%.

On to `c1nc(-c2ccc(CNC34CC5CC(CC(C5)C3)C4)cc2)no1` [Example 40, Adamantan-1-yl-(4-[1,2,4]oxadiazol-3-yl-benzyl)-amine], for which the inhibition at 100 µM is 0 to 30%.

`Fc1ccc(CNC23CC4CC(CC(C4)C2)C3)cc1` [Example 27, Adamantan-1-yl-(4-fluoro-benzyl)-amine]: the inhibition at 100 µM lay in the range of 31 to 95%.

The same test, now with this note: Table 3; 100 uM; Xenopus oocytes, pH 5.5, -20 mV; read-out: S31 OOcyte Inhibition at 100 uM (%).
Take `Clc1ccc(CNC23CC4CC(CC(C4)C2)C3)nn1` [Example 70b, Adamantan-1-yl-(6-chloro-pyridazin-3-ylmethyl)-amine]: the inhibition at 100 µM was 31 to 95%.

Regarding `Oc1cc(-c2ccco2)ccc1CNC12CC3CC(CC(C3)C1)C2` [Example 7b, 2-((-Adamantan-1-ylamino)methyl)-5-(furan-2-yl)phenol], the inhibition at 100 µM was in the range of 0 to 30%.

`CC(C)(C)c1ccc(-c2ccc(CNC34CC5CC(CC(C5)C3)C4)s2)cc1` [Example 50b, N-((5-(4-(tert-Butyl)phenyl)thiophen-2-yl)methyl)adamantan-1-amine]: the inhibition at 100 µM was 0 to 30%.

On to `CSc1ccccc1-c1ccc(CNC23CC4CC(CC(C4)C2)C3)cc1` [Example 66b, Adamantan-1-yl-(2′-methylsulfanyl-biphenyl-4-ylmethyl)-amine], for which the inhibition at 100 µM fell in the range of 0 to 30%.

`Oc1cc(Cl)ccc1CNC12CC3CC(CC(C3)C1)C2` [Example 9b, 2-((-Adamantan-1-ylamino)methyl)-5-chlorophenol]: the inhibition at 100 µM was 31 to 95%.

Take `CC(NC12CC3CC(CC(C3)C1)C2)c1ccc(-c2ccccc2)cc1` (stereo not drawn) [Example 4b, N-(1-([1,1′-biphenyl]-4-yl)ethyl)adamantan-1-amine]: the inhibition at 100 µM was 31 to 95%.

For `COc1ccc(Cc2nc(CNC34CC5CC(CC(C5)C3)C4)no2)cc1OC` [Example 28b, N-((5-(3,4-dimethoxybenzyl)-1,2,4-oxadiazol-3-yl)methyl)adamantan-1-amine], the inhibition at 100 µM is 0 to 30%.

Consider `COc1ccc(-c2cc(CNC34CC5CC(CC(C5)C3)C4)no2)c(OC)c1` [Example 41b, N-((5-(2,4-dimethoxyphenyl)isoxazol-3-yl)methyl)adamantan-1-amine], for which the inhibition at 100 µM lay within 0 to 30%.

Consider `CC(NC12CC3CC(CC(C3)C1)C2)c1ccc(C(C)(C)C)cc1` (stereo not drawn) [Example 3b, N-(1-(4-(tert-butyl)phenyl)ethyl)adamantan-1-amine], for which the inhibition at 100 µM was 0 to 30%.

Regarding `c1cnc2[nH]c(CNC34CC5CC(CC(C5)C3)C4)nc2c1` [Example 82b, N-((3H-imidazo[4,5-b]pyridin-2-yl)methyl)adamantan-1-amine], the inhibition at 100 µM is 0 to 30%.
